Patent publication US9261498B2, “Biomarker for sensitivity to mTOR inhibitor therapy in kidney cancer” (The Regents of the University of California, priority 2005, dated 2016)

What was measured:
SN12C-VHL shRNA cells = assay: In vitro growth (cell counts), VHL knockdown cells; type: cell-based, human
Description: (§1) FIGS. 1A-1E. Effects of VHL knockdown on sensitivity to CCI-779. (a) Immunoblotting of lysates derived from shRNA and control (empty vector, V) in SN12C, using antibodies against VHL (both isoforms detected), HIF-1α, HIF-2α, GLUT-1, CA-IX and β-Actin (as a loading control). (b) SN12C-CSCG and SN12C-VHLshRNA cells (1×10^5) were cultured in 10% serum rich media, in the presence of vehicle, 1 or 10 nM of CCI-779 for 5 days. Cell growth was measured by cell counts (n=3). […] (c) SN12C-CSCG (C1) and SN12C-CSCG shVHL RNA (C2) cells were injected into SCID mice at a dose of 1×10^6 cells per mouse (n=30). When tumor volume reached 150 mm^3, mice were randomized to daily treatment with vehicle or 0.1 mg/kg of CCI-779. The change in tumor volume is plotted. Phosphorylated-S6 protein in SN12C-CSCG and SN12C-VHL shRNA xenograft tumors treated with vehicle or 0.1 mg/kg of CCI-779 was measured by immunoblot C3 and C4). Equal loading verified by actin immunoblots. […] (e) Schematic of shRNA-expressing lentivirus directed against VHL in pCSCG vector.
(§2) For in vitro experiments, cells (5×10^4) were plated and treated with 1 and 10 nM CCI-779 (kind gift of J. Gibbons, Wyeth) or vehicle (ethanol). On day 5-post treatment, cells were trypsinized, resuspended in DMEM with 10% FBS and counted using the VI CELL counter (Beckman Coulter), according to the manufacturer's instructions. Cell counts were done in triplicate and repeated on at least 3 independent occasions. In vivo tumorigenicity was measured by injection of 5×10^5 SN12C-CSCG, ACHN-CSCG, SN12C-CSCG-VHLshRNAi, ACHN-CSCG-VHLshRNAi, SN12C-CSCG-VHLshRNAi-pBABE, SN12C-CSCG-VHLshRNAi-pBABE-HA-HIF-2α (P405A; P531A) cells in 100 μl of Matrigel (Collaborative Biomedical) subcutaneously into the flanks of SCID mice. Tumor size were measured weekly in three dimensions using calipers as described (Klein, K. A. et al. Nat Med 3, 402-8 (1997)). When tumors reached 200 mm^3, all tumors received 0.1 mg/kg/daily of CCI-779 or vehicle. All mouse experiments were performed in compliance with the guidelines of the Animal Research Committee of the University of California at Los Angeles.
(§3) SN12C and ACHN (NCI60, DTP) were maintained in Dulbecco's modified Eagle's Medium (DMEM) supplemented with 10% FBS. […] On day 5-post treatment, cells were trypsinized, resuspended in DMEM with 10% FBS and counted using the VI-Cell XR automated cell viability analyzer (Beckmann Coulter). […] In vivo tumorigenicity was measured by injection of 5×10^5 SN12C-CSCG, ACHN-CSCG, SN12C-CSCG-VHL shRNA, ACHN-CSCG-VHL shRNA, SN12C-CSCG-VHL shRNA-pBABE, SN12C-CSCG-VHL shRNA-pBABE-HA-HIF-2α (P405A; P531A) cells in 100 μl of Matrigel (Collaborative Biomedical) subcutaneously into the flanks of SCID mice. Tumor size were measured weekly in three dimensions using calipers as described. […]

ACHN-VHL shRNA cells = assay: In vitro growth (cell counts), VHL knockdown cells; type: cell-based, human
Description: as §1, §2, §3

[1] = dose-dependent, 1 and 10 nM CCI-779, day 5

CO[C@H]1C[C@@H]2CC[C@@H](C)[C@@](O)(O2)C(=O)C(=O)N2CCCC[C@H]2C(=O)O[C@H]([C@H](C)C[C@@H]2CC[C@@H](OC(=O)C(C)(CO)CO)[C@H](OC)C2)CC(=O)[C@H](C)/C=C(\C)[C@@H](O)[C@@H](OC)C(=O)[C@H](C)C[C@H](C)/C=C/C=C/C=C/1C [CCI-779]
sensitivity to CCI-779 in contrast to the parental cells (SN12C-VHL shRNA cells; 1 and 10 nM, in vitro): increased sensitivity
reduction of cell growth (SN12C-VHL shRNA cells; [1]): 70%
sensitivity to CCI-779 after stable VHL knockdown (ACHN-VHL shRNA cells; FIG. 1D): enhanced sensitivity
reduction of cell growth (ACHN-VHL shRNA cells; [1]): 70%
